Like-named read-outs stand apart in the source and are kept apart here.

One test deals with P-P70S6K (T389). Nature of the test: Cell based AlphaLISA assay, inhibition of P-P70S6K (T389) (mTORC1 substrate phosphorylation) in MDA-MB-468 cells. The note with it: Homo sapiens, 4 h, AlphaLISA, two to four hours at 37° C., read-out: pIC50 for Inhibition of mTORC1 and mTORC2 Substrate Phosphorylation, P-P70S6K-(T389) (converted). Summed up: (§1)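 Phosphoprotein levels were quantified with AlphaLISA SureFire Ultra kits after compound treatment. Incubation ended by removing assay buffer and lysing cells, and the Alpha signal was read in duplicate. IC50 came from normalized concentration-response regression with control-based normalization.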

For a further test, the system named is P-4E-BP1 (T37/46). Nature of the test: Cell based AlphaLISA assay, inhibition of P-4E-BP1 (T37/46) (mTORC1 substrate phosphorylation) in MDA-MB-468 cells. As to conditions: Homo sapiens, AlphaLISA, two to four hours at 37° C., read-out: pIC50 for Inhibition of mTORC1 and mTORC2 Substrate Phosphorylation, P-4E-BP1-(T37/46) (converted). The gist of the method: as §1

A further test deals with P-Akt (S473). In words: Cell based AlphaLISA assay, inhibition of P-Akt (S473) (mTORC2 substrate phosphorylation) in MDA-MB-468 cells. As to conditions: Homo sapiens, AlphaLISA, two to four hours at 37° C., read-out: pIC50 for Inhibition of mTORC1 and mTORC2 Substrate Phosphorylation, p-AKT 1/2/3 -(S473) (converted). Summed up: as §1

For the compound `CO[C@@H]1C[C@H](C[C@@H](C)[C@@H]2CC(=O)[C@H](C)/C=C(\C)[C@@H](O)[C@@H](OC)C(=O)[C@H](C)C[C@H](C)/C=C/C=C/C=C(\C)[C@@H](c3ccco3)C[C@@H]3CC[C@@H](C)[C@@](O)(O3)C(=O)C(=O)N3CCCC[C@H]3C(=O)O2)CC[C@H]1OCCCCc1cn(CCOCCOCCOCCOCCOCCOCCOCCOCCC(=O)NCCCCn2nc(-c3cc4cc(O)ccc4[nH]3)c3c(N)ncnc32)nn1` [Example 76], the IC50 in the test with P-P70S6K (T389) was less than 1 nM; with P-4E-BP1 (T37/46) (MDA-MB-468, 4 h) it was less than 3.16 nM; in the test on P-Akt (S473) (MDA-MB-468, 4 h) it was 3.16 to 31.6 nM.

For the compound `CO[C@H]1C[C@@H]2CC[C@@H](C)[C@@](O)(O2)C(=O)C(=O)N2CCCC[C@H]2C(=O)O[C@H]([C@H](C)C[C@@H]2CC[C@@H](OCCCCc3cn(CCOCCOCCOCCOCCOCCOCCOCCOCCC(=O)NCCCCn4nc(-c5ccc6oc(N)nc6c5)c5c(N)ncnc54)nn3)[C@H](OC)C2)C[C@@H](OC)[C@H](C)/C=C(\C)[C@@H](O)[C@@H](OC)C(=O)[C@H](C)C[C@H](C)/C=C/C=C/C=C/1C` [Example 77], the IC50 in the test on P-P70S6K (T389) was less than 1 nM; in the test with P-4E-BP1 (T37/46) (MDA-MB-468, 4 h), less than 3.16 nM; with P-Akt (S473) (MDA-MB-468, 4 h), 3.16 to 31.6 nM.

On to `CO[C@H]1C[C@@H]2CC[C@@H](C)[C@@](O)(O2)C(=O)C(=O)N2CCCC[C@H]2C(=O)O[C@H]([C@H](C)C[C@@H]2CC[C@@H](O)[C@H](OC)C2)C[C@@H](O)[C@H](C)/C=C(\C)[C@@H](O)[C@@H](OC)C(=NOCc2cn(CCOCCOCCOCCOCCOCCOCCOCCOCCC(=O)NCCCCn3nc(-c4cnc5[nH]ccc5c4)c4c(N)ncnc43)nn2)[C@H](C)C[C@H](C)/C=C/C=C/C=C/1C` [Example 79], for which the IC50 with P-P70S6K (T389) was less than 1 nM; with P-4E-BP1 (T37/46) (MDA-MB-468, 4 h) it was 3.16 to 31.6 nM; in the test on P-Akt (S473) (MDA-MB-468, 4 h) it was 31.6 to 1000 nM.

Turning to `COC(=O)N[C@H]1C[C@@H]2CC[C@@H](C)[C@@](O)(O2)C(=O)C(=O)N2CCCC[C@H]2C(=O)O[C@H]([C@H](C)C[C@@H]2CC[C@@H](OCCCCc3cn(CCOCCOCCOCCOCCOCCOCCOCCOCCC(=O)NCCCCn4nc(-c5cnc6[nH]ccc6c5)c5c(N)ncnc54)nn3)[C@H](OC)C2)CC(=O)[C@H](C)/C=C(\C)[C@@H](O)[C@@H](OC)C(=O)[C@H](C)C[C@H](C)/C=C/C=C/C=C/1C` [Example 81], the IC50 in the test with P-P70S6K (T389) is 1 to 10 nM; in the test on P-4E-BP1 (T37/46) (MDA-MB-468, 4 h), 3.16 to 31.6 nM; in the test with P-Akt (S473) (MDA-MB-468, 4 h), 31.6 to 1000 nM.

Regarding `CO[C@H]1C[C@@H]2CC[C@@H](C)[C@@](O)(O2)C(=O)C(=O)N2CCCC[C@H]2C(=O)O[C@H]([C@H](C)C[C@@H]2CC[C@@H](OCCCCc3cn(CCOCCOCCOCCOCCOCCOCCOCCOCCC(=O)N(C)CCCCn4nc(-c5ccc6oc(N)nc6c5)c5c(N)ncnc54)nn3)[C@H](OC)C2)CC(=O)[C@H](C)/C=C(\C)[C@@H](O)[C@@H](OC)C(=O)[C@H](C)C[C@H](C)/C=C/C=C/C=C/1C` [Example 83], the IC50 is less than 1 nM in the test with P-P70S6K (T389); less than 3.16 nM in the test with P-4E-BP1 (T37/46) (MDA-MB-468, 4 h); less than 3.16 nM in the test with P-Akt (S473) (MDA-MB-468, 4 h).

For the compound `CO[C@H]1C[C@@H]2CC[C@@H](C)[C@@](O)(O2)C(=O)C(=O)N2CCCC[C@H]2C(=O)O[C@H]([C@H](C)C[C@@H]2CC[C@@H](OCCCCc3cn(CCOCCOCCOCCOCCOCCOCCC(=O)N(C)CCCCn4nc(-c5ccc6oc(N)nc6c5)c5c(N)ncnc54)nn3)[C@H](OC)C2)CC(=O)[C@H](C)/C=C(\C)[C@@H](O)[C@@H](OC)C(=O)[C@H](C)C[C@H](C)/C=C/C=C/C=C/1C` [Example 84], the IC50 with P-P70S6K (T389) is less than 1 nM; in the test on P-4E-BP1 (T37/46) (MDA-MB-468, 4 h) it was less than 3.16 nM; in the test on P-Akt (S473) (MDA-MB-468, 4 h), 3.16 to 31.6 nM.

As to `CO[C@H]1C[C@@H]2CC[C@@H](C)[C@@](O)(O2)C(=O)C(=O)N2CCCC[C@H]2C(=O)O[C@H]([C@H](C)C[C@@H]2CC[C@@H](OCCCCc3cn(CCOCCOCCOCCOCCOCCOCCOCCOCCC(=O)NCc4ccc(Cn5nc(-c6ccc7oc(N)nc7c6)c6c(N)ncnc65)cc4)nn3)[C@H](OC)C2)CC(=O)[C@H](C)/C=C(\C)[C@@H](O)[C@@H](OC)C(=O)[C@H](C)C[C@H](C)/C=C/C=C/C=C/1C` [Example 85], the results for the IC50 with P-P70S6K (T389), in the test with P-4E-BP1 (T37/46) (4 h) and in the test on P-Akt (S473) (4 h) were less than 1 nM, less than 3.16 nM and 3.16 to 31.6 nM, respectively.

For the compound `CO[C@H]1C[C@@H]2CC[C@@H](C)[C@@](O)(O2)C(=O)C(=O)N2CCCC[C@H]2C(=O)O[C@H]([C@H](C)C[C@@H]2CC[C@@H](OCCCCc3cn(CCOCCOCCOCCOCCOCCOCCC(=O)NCc4ccc(Cn5nc(-c6ccc7oc(N)nc7c6)c6c(N)ncnc65)cc4)nn3)[C@H](OC)C2)CC(=O)[C@H](C)/C=C(\C)[C@@H](O)[C@@H](OC)C(=O)[C@H](C)C[C@H](C)/C=C/C=C/C=C/1C` [Example 86], the IC50 with P-P70S6K (T389) is less than 1 nM; in the test on P-4E-BP1 (T37/46) (MDA-MB-468, 4 h), less than 3.16 nM; with P-Akt (S473) (MDA-MB-468, 4 h), 3.16 to 31.6 nM.

On to `CO[C@H]1C[C@@H]2CC[C@@H](C)[C@@](O)(O2)C(=O)C(=O)N2CCCC[C@H]2C(=O)O[C@H]([C@H](C)C[C@@H]2CC[C@@H](O)[C@H](OC)C2)C[C@@H](O)[C@H](C)/C=C(\C)[C@@H](O)[C@@H](OC)C(=NOCc2cn(CCOCCOCCOCCOCCOCCOCCOCCOCCC(=O)N3CCc4cc(Cn5nc(-c6ccc7oc(N)nc7c6)c6c(N)ncnc65)ccc4C3)nn2)[C@H](C)C[C@H](C)/C=C/C=C/C=C/1C` [Example 87], for which the IC50 with P-P70S6K (T389) was less than 1 nM; with P-4E-BP1 (T37/46) (MDA-MB-468, 4 h), 3.16 to 31.6 nM; in the test on P-Akt (S473) (MDA-MB-468, 4 h), more than 1000 nM.

Take `CO[C@H]1C[C@@H]2CC[C@@H](C)[C@@](O)(O2)C(=O)C(=O)N2CCCC[C@H]2C(=O)O[C@H]([C@H](C)C[C@@H]2CC[C@@H](OCCCCc3cn(CCOCCOCCOCCOCCOCCOCCOCCOCCC(=O)N4CCc5cc(Cn6nc(-c7ccc8oc(N)nc8c7)c7c(N)ncnc76)ccc5C4)nn3)[C@H](OC)C2)CC(=O)[C@H](C)/C=C(\C)[C@@H](O)[C@@H](OC)C(=O)[C@H](C)C[C@H](C)/C=C/C=C/C=C/1C` [Example 88]: the IC50 in the test with P-P70S6K (T389) is less than 1 nM; in the test with P-4E-BP1 (T37/46) (4 h), less than 3.16 nM; in the test with P-Akt (S473) (4 h), 3.16 to 31.6 nM.

For `CO[C@H]1C[C@@H]2CC[C@@H](C)[C@@](O)(O2)C(=O)C(=O)N2CCCC[C@H]2C(=O)O[C@H]([C@H](C)C[C@@H]2CC[C@@H](OCCCCc3cn(CCOCCOCCOCCOCCOCCOCCC(=O)N4CCc5cc(Cn6nc(-c7ccc8oc(N)nc8c7)c7c(N)ncnc76)ccc5C4)nn3)[C@H](OC)C2)CC(=O)[C@H](C)/C=C(\C)[C@@H](O)[C@@H](OC)C(=O)[C@H](C)C[C@H](C)/C=C/C=C/C=C/1C` [Example 89], the IC50 in the test with P-P70S6K (T389) was less than 1 nM; in the test with P-4E-BP1 (T37/46) (MDA-MB-468, 4 h), less than 3.16 nM; in the test on P-Akt (S473) (MDA-MB-468, 4 h) it was 3.16 to 31.6 nM.

Regarding `CO[C@H]1C[C@@H]2CC[C@@H](C)[C@@](O)(O2)C(=O)C(=O)N2CCCC[C@H]2C(=O)O[C@H]([C@H](C)C[C@@H]2CC[C@@H](OCCCCc3cn(CCOCCOCCOCCOCCOCCOCCOCCOCCC(=O)N4CCC(Cn5nc(-c6ccc7oc(N)nc7c6)c6c(N)ncnc65)CC4)nn3)[C@H](OC)C2)CC(=O)[C@H](C)/C=C(\C)[C@@H](O)[C@@H](OC)C(=O)[C@H](C)C[C@H](C)/C=C/C=C/C=C/1C` [Example 90], the IC50 was less than 1 nM in the test on P-P70S6K (T389), less than 3.16 nM with P-4E-BP1 (T37/46) (4 h) and less than 3.16 nM with P-Akt (S473) (4 h).

These data come from patent publication US20230093861A1, “RAPAMYCIN ANALOGS AS MTOR INHIBITORS” (Revolution Medicines, Inc., priority 2017, published 2023).
